# Reference: patent publication US20070212723A1, “Human sodium channel isoforms” (priority 2006, published 2007)
# How the values were obtained:
# [1] = target: T1, NF-κB binding to the scn5a promoter (Rattus norvegicus, UniProt Q63369+Q7TQN4); experiment: Electrophoretic mobility shift assay with H9c2 nuclear extracts; assay type: cell-based
# T1 construct: endogenous in cells; host or cells: H9c2 cardiomyocytes (nuclear extract / cross-linked chromatin)
# Excerpt: Approximately 5×10^6 cells were scraped for nuclear protein extraction by nuclear extract kit (Activemotif, Carlsbad, Calif.). A double-stranded oligonucleotide containing the consensus-binding sequence (bold) for […] ID NO. 32)) and NF-Kb mutant sequence ([NT] ID NO. 33)) from scn5a promoter were used as probes to assay for binding activity of the nuclear extracts. Protein-DNA complexes were detected using biotin end-labeled double-stranded DNA probes prepared by annealing complementary oligonucleotides. Oligonucleotides were labeled in a reaction using terminal deoxynucleotide transferase and biotin-N4-CTP (Pierce, Rockford, Ill.) following the biotin 3' end DNA labeling kit manual. The binding reaction was performed using the LightShift kit (Pierce). Briefly, 30 μg of nuclear extracts and binding buffer were incubated on ice for 5 min in a volume of 20 μL, then the labeled probe (20 fmol) was added, and the reaction was allowed to incubate for an additional 25 min. Following electrophoresis, the DNA-protein complexes were transferred onto nylon membranes and detected using chemiluminescence. TNF-α activated H9c2 cell nuclear extract (5 μg) was used as positive control. The reaction products were separated on a 6% retardation gel. Specificity was confirmed by addition of unlabelled probe in 200-fold excess.
# [2] = target: T2, NF-κB p50/p65 subunits on the cardiac Na+ channel promoter (Rattus norvegicus, UniProt Q63369+Q7TQN4); experiment: Chromatin immunoprecipitation (ChIP) assay in H9c2 cells; assay type: cell-based
# T2 construct: endogenous in cells; host or cells: H9c2 cardiomyocytes (nuclear extract / cross-linked chromatin)
# T2 sequence (Q63369 1-433 limits assumed): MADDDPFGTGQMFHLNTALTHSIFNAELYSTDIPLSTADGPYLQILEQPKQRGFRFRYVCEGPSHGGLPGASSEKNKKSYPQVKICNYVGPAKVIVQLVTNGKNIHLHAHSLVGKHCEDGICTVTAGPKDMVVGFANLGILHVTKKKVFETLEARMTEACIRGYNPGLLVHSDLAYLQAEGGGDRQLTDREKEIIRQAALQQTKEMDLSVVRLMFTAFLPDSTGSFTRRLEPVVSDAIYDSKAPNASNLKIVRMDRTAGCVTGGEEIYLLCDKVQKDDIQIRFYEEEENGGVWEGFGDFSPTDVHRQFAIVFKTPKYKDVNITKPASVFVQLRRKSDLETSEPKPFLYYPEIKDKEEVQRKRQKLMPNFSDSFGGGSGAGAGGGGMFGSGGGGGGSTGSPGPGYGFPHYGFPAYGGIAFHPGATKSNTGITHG
# T2 sequence (Q7TQN4 whole entry): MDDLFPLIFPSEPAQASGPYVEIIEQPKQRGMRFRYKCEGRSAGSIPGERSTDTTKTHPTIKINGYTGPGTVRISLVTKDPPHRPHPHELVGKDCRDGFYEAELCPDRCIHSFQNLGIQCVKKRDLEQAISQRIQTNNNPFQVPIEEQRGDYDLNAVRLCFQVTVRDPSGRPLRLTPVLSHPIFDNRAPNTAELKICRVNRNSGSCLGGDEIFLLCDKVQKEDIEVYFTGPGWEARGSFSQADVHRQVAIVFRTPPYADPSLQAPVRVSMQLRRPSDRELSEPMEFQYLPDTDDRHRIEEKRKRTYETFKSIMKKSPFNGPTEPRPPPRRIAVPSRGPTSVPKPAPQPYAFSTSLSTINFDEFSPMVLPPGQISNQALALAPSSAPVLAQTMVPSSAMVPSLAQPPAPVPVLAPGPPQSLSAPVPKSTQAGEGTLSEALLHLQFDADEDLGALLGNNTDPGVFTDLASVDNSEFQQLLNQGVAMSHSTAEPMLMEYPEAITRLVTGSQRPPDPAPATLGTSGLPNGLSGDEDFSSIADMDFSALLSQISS
# Description: Formaldehyde cross-linking and chromatin immunoprecipitation was performed as described in manufactory's manual (ChIP-IT™ kit, Activemotif). Briefly, proteins were crosslinked with chromatin using 1% formaldehyde in H9c2 cells with or without treatment. The cells were subsequently sonicated in lysis buffer, and an aliquot of the lysate was used in a PCR reaction. The remaining lysate was cleared with protein G beads. One half of the cleared lysate was incubated with p50 or p65 antibody, while the other half was used as a negative control without the antibody. After reversing the cross-linking, the immuno-complex was digested with proteinase K, and the DNA was purified. DNA was analyzed by PCR with the PicoMax Polymerase (Stratagene, La Jolla, Calif.) and primers specific to the APS3 promoter region.
# [3] = test system: H9c2 cardiomyocytes; settings: H9c2, serum free medium, 48 h
# Description: The rat embryonic cardiomyocyte cell line, H9c2 (ATCC cat # CRL-1446), or acutely isolated neonatal rat heart cardiomyocytes were used. Rat neonatal ventricular cells were isolated from 3-day-old Sprague-Dawley rats (Charles River Laboratories Wilmington, Mass.) using a kit and following the manufacturer's instructions (Worthington Biochemical Corp. Lakewood, N.J.). Cells cultured in Dulbecco's modified Eagle's medium (DMEM; ATCC, Manassas, Va.) with 10% fetal calf serum (ATCC) under standard tissue culture conditions at 37° C. to 70-80% confluence were exposed to AngII (Sigma, St. Louis, Mo.) or H2O2 (Sigma) in serum free culture medium (SFM) for a total of 48 h in triplicate in 24 well plates. Experiments were repeated three times. After dissociation with 0.125% trypsin-EDTA, 20 μL of 0.4% Trypan-blue (Sigma, St. Louis, Mo.) was added to each well, and a Trypan-blue exclusion viability assay was performed.
# [4] = target: Na+ current (Homo sapiens, UniProt Q14524); settings: acute exposure, dependent on PKC activation (Ward et al. 1997); cited from earlier work
# Sequence of Na+ current (Q14524 whole entry): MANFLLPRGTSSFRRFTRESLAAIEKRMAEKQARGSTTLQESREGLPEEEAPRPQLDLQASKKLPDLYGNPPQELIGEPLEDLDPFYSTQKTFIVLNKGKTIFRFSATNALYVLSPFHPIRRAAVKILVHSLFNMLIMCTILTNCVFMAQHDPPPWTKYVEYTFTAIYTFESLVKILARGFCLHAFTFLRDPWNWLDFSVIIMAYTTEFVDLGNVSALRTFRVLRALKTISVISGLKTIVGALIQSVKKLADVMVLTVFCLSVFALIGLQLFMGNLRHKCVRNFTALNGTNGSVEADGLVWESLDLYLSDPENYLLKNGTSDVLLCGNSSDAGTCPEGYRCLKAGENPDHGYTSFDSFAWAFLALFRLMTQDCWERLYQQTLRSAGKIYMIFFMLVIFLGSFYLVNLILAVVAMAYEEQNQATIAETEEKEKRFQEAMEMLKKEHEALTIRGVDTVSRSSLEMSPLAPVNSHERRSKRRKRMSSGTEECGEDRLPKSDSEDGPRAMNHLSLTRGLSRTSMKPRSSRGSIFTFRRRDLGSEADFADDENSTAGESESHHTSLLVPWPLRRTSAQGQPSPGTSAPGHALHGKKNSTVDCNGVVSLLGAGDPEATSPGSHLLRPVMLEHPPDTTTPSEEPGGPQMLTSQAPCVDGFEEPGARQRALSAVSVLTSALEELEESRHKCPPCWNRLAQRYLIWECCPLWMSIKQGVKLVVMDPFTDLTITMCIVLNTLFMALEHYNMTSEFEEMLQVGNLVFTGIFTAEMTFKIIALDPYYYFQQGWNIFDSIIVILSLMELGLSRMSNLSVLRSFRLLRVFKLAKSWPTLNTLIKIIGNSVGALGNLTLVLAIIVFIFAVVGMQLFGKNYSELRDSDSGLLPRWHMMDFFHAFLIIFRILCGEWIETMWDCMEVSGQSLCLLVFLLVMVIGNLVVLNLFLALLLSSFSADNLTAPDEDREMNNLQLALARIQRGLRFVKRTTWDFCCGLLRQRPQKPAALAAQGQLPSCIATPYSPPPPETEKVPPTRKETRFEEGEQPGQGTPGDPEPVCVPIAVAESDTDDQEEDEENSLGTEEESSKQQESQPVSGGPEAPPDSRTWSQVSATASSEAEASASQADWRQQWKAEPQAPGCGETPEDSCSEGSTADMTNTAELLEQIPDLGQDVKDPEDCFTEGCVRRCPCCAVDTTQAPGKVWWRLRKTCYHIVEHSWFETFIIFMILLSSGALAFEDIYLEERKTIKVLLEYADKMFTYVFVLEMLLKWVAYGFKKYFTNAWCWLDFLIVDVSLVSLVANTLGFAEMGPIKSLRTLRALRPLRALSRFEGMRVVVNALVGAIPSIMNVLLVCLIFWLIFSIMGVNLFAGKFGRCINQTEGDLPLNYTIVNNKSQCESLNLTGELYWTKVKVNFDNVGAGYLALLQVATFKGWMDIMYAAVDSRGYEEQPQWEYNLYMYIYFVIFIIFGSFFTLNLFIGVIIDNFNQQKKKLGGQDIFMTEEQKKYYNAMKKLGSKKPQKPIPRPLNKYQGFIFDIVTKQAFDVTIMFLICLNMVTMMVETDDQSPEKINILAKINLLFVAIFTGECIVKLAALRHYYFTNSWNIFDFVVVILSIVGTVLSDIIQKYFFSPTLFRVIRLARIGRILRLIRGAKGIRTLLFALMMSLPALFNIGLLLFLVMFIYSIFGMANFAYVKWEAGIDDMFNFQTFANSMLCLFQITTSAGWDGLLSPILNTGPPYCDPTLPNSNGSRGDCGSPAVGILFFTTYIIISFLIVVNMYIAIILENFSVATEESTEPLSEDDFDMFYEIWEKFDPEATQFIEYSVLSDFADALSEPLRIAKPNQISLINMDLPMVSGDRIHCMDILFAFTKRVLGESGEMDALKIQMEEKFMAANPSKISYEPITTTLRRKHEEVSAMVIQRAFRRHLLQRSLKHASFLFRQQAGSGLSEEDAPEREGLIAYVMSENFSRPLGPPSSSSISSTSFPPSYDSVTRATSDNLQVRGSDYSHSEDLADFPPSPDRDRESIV
# [5] = test system: scn5a promoter with mutated NF-κB binding site; experiment: Promoter-reporter assay with mutated NF-κB binding site (APS3-NF-κBm) in H9c2 cells; assay type: cell-based, rat; settings: H9c2, 48 h, 100 nM AngII or 20 μM H2O2
# [6] = test system: cardiac sodium channel (scn5a) mRNA; experiment: Quantitative real-time RT-PCR of scn5a transcripts in H9c2 cells; assay type: cell-based, rat
# [7] = test system: scn5a promoter; experiment: scn5a promoter-reporter (pGL3-APS3) dual-luciferase assay in H9c2 cells; assay type: cell-based, rat; settings: APS3 construct, H9c2, 20 μM H2O2, 48 h
# [8] = test system: cardiac sodium channel (scn5a) mRNA; experiment: Quantitative real-time RT-PCR of scn5a transcripts in acutely isolated neonatal cardiomyocytes; assay type: cell-based, rat
# [9] = test system: cardiac Na+ channel current; experiment: Patch-clamp determination of Na+ current in H9c2 cells; assay type: cell-based, rat; settings: H9c2, 20 μmol/L H2O2, 48 h, step to -10 mV
# Description: Three hours prior to the start of the patch-clamp experiments, H9c2 cells were trypsinized and plated on treated plastic coverslips. H9c2 cells were treated with or without H2O2 as indicated. Glass pipettes were pulled on a Sutter Model P-97 horizontal puller to a resistance of 0.5 to 1.5 MΩ. The glass pipettes were filled with a solution of (in mM) CsCl 60, Cesium Aspartate 80, EGTA sodium 11, HEPES 10, Na2ATP 5 and pH 7.2 with CsOH. The bath solution consisted of (in mM) Na 30, […] chloride 100, CsCl 5, CaCl2 2, MgCl2 1.2, HEPES 10, Glucose 5 and pH 7.4 with NaOH. Once a seal was established, a small amount of suction was applied to obtain the whole cell configuration. From a holding potential of −100 mV, peak currents obtained at −10 mV were used for comparison. Cells were tested at 25° C. Data were sampled at 10 kHz and later filtered at 5 kHz for analysis. Currents were recorded and analyzed with an Axopatch 200B amplifier, Axon Digidata 1230A A/D converter and pClamp software (Molecular Devices Corporation, Sunnyvale, Calif.).
# T1 sequence (Q63369 1-433 limits assumed): as the sequence (Q63369 1-433 limits assumed) above
# T1 sequence (Q7TQN4 whole entry): as the sequence (Q7TQN4 whole entry) above
compound,measurement,setting,value
"O=C(/C=C/c1ccc(O)c(O)c1)OCCc1ccccc1 [CAPE, caffeic acid phenethyl ester]",effect on NF-κB binding to scn5a promoter probe,"[1]; CAPE 10 μM, H9c2 treated with H2O2",blocked
same,effect on binding of p50 and p65 subunits to the channel promoter,"[2]; H9c2, CAPE",could prevent biding of both subunits
"CC[C@H](C)[C@H](NC(=O)[C@H](Cc1ccc(O)cc1)NC(=O)[C@@H](NC(=O)[C@H](CCCNC(=N)N)NC(=O)[C@@H](N)CC(=O)O)C(C)C)C(=O)N[C@@H](Cc1cnc[nH]1)C(=O)N1CCC[C@H]1C(=O)N[C@@H](Cc1ccccc1)C(=O)O [AngII, angiotensin II]",AngII concentrations tolerated (cell viability),[3],1 to 500 nM
OO [H2O2],effect on inactivation of the Na+ current,[4],slowing of inactivation
same,change in promoter activity of construct with mutated NF-κB binding site,[5],no significant change in activity
same,NF-κB binding activity to scn5a promoter probe,"[1]; H9c2 nuclear extracts, 48 h treatment",increased
same,reduction in Na+ channel mRNA,"[6]; H9c2, 20 μmol/L H2O2, 48 h",46.9%
same,depression of scn5a Na+ channel promoter activity,[7],42.3%
same,reduction in Na+ channel mRNA,"[8]; isolated neonatal rat myocytes, 40 nM H2O2, 48 h",45.4%
same,NF-κB subunits on the cardiac Na+ channel promoter,"[2]; H9c2, AngII or H2O2 treatment",formation of the complete p50-p65 NF-κB heterodimer
same,decrease in peak Na+ current,[9],46%
catalase,effect on AngII-mediated downregulation of Na+ channel mRNA,"[6]; H9c2, pretreatment with PEG-catalase 250 U/mL, AngII 100 nM, 48 h",prevented
same,effect on AngII-mediated downregulation of Na+ channel mRNA,"[8]; neonatal cardiomyocytes, pretreatment with PEG-catalase 250 U/mL, AngII 2 nM, 48 h",prevented
